From patent US9096596B2 (Janssen Pharmaceutica NV, priority 2013, dated 2015)

target: rat P2X7 (Rattus norvegicus (Rat), UniProt Q64663); test: Ca2+ flux (FLIPR) in 1321N1 cells expressing recombinant rat P2X7 channel; type: cell-based; conditions: 250 μM BzATP, Calcium-4 dye
Description: 1321N1 cells expressing the recombinant human, rat or mouse P2X7 channel was cultured in HyQ DME/(HyClone/Dulbecco's Modified Eagle Medium) high glucose supplemented with 10% Fetal Bovine Serum (FBS) and appropriate selection marker. Cells were seeded at a density of 25000 cells/well (96-well clear bottom black walled plates) in 100 μl volume/well. On the day of the experiment, cell plates were washed with assay buffer, containing (in mM): 130 NaCl, 2 KCl, 1 CaCl2, 1 MgCl2, 10 HEPES, 5 glucose; pH 7.40 and 300 mOs. After the wash, cells were loaded with the Calcium-4 dye (Molecular Device) and incubated in the dark for 60 minutes. Test compounds were prepared at 250× the test concentration in neat DMSO. Intermediate 96-well compound plates were prepared by transferring 1.2 μL of the compound into 300 μL of assay buffer. A further 3× dilution occurred when transferring 50 μL/well of the compound plate to 100 μL/well in the cell plate. Cells were incubated with test compounds and dye for 30 minutes. […] The fluorescence change was measured 180 seconds after adding the agonist.

Chain of rat P2X7 (Q64663 whole entry): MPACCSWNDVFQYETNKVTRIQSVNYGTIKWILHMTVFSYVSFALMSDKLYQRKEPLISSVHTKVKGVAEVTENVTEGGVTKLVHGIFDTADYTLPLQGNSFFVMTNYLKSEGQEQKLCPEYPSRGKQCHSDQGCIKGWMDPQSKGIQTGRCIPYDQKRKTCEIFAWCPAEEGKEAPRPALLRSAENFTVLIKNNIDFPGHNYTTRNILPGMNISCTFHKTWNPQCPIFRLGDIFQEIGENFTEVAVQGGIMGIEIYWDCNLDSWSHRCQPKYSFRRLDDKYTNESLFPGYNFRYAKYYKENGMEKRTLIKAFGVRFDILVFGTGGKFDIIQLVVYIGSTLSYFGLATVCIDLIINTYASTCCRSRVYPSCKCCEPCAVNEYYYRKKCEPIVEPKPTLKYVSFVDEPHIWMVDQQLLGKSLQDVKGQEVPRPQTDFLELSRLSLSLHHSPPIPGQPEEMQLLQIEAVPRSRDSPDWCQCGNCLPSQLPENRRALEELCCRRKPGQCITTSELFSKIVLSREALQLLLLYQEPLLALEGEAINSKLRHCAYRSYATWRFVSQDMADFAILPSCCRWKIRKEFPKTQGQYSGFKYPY

SMILES	IC50 [nM]
Cc1nc2c(c(-c3ccn[nH]3)n1)C[C@@H](C)N(C(=O)c1ccc(F)cc1Cl)C2 (single isomer, unassigned) [Example 91, (R*)-(2-chloro-4-fluorophenyl)(2,6-dimethyl-4-(1H-pyrazol-5-yl)-5,6-dihydropyrido[3,4-d]pyrimidin-7(8H)-yl)methanone]	132
Cc1cccc(C(=O)N2CCc3c(ncnc3-c3ccn[nH]3)C2)c1Cl [Example 8, 7-[(2-Chloro-3-methylphenyl)carbonyl]-4-(1H-pyrazol-5-yl)-5,6,7,8-tetrahydropyrido[3,4-d]pyrimidine]	> 10000
Cc1nc2c(c(-c3ccn[nH]3)n1)C[C@H](C)N(C(=O)c1cccc(Cl)c1Cl)C2 (single isomer, unassigned) [Example 69, (S*)-(2,3-dichlorophenyl)(2,6-dimethyl-4-(1H-pyrazol-5-yl)-5,6-dihydropyrido[3,4-d]pyrimidin-7(8H)-yl)methanone]	938
C[C@@H]1c2ncnc(-c3ccn[nH]3)c2CCN1C(=O)c1ccc(F)c(Cl)c1Cl (single isomer, unassigned) [Example 119, (R*)-(2,3-dichloro-4-fluorophenyl)(8-methyl-4-(1H-pyrazol-5-yl)-5,6-dihydropyrido[3,4-d]pyrimidin-7(8H)-yl)methanone]	28.4
C[C@@H]1c2ncnc(-c3ccn[nH]3)c2CCN1C(=O)c1cccc(C(F)(F)F)c1Cl (single isomer, unassigned) [Example 113, (R*)-(2-chloro-3-(trifluoromethyl)phenyl)(8-methyl-4-(1H-pyrazol-5-yl)-5,6-dihydropyrido[3,4-d]pyrimidin-7(8H)-yl)methanone]	9.1
C[C@H]1c2ncnc(-c3ccn[nH]3)c2CCN1C(=O)c1ccc(F)c(Cl)c1Cl (single isomer, unassigned) [Example 120, (S*)-(2,3-dichloro-4-fluorophenyl)(8-methyl-4-(1H-pyrazol-5-yl)-5,6-dihydropyrido[3,4-d]pyrimidin-7(8H)-yl)methanone]	1510
Cc1nc2c(c(-c3ccn[nH]3)n1)C[C@@H](C)N(C(=O)c1cccc(Cl)c1Cl)C2 (single isomer, unassigned) [Example 68, (R*)-(2,3-dichlorophenyl)(2,6-dimethyl-4-(1H-pyrazol-5-yl)-5,6-dihydropyrido[3,4-d]pyrimidin-7(8H)-yl)methanone]	8.8
Cc1nc2c(c(-n3nccn3)n1)CCN(C(=O)c1cccc(C(F)(F)F)c1Cl)C2 [Example 47, 7-{[2-Chloro-3-(trifluoromethyl)phenyl]carbonyl}-2-methyl-4-(2H-1,2,3-triazol-2-yl)-5,6,7,8-tetrahydropyrido[3,4-d]pyrimidine]	7.9
C[C@H]1c2ncnc(-c3ccn[nH]3)c2CCN1C(=O)c1cccc(C(F)(F)F)c1Cl (single isomer, unassigned) [Example 114, (S*)-(2-chloro-3-(trifluoromethyl)phenyl)(8-methyl-4-(1H-pyrazol-5-yl)-5,6-dihydropyrido[3,4-d]pyrimidin-7(8H)-yl)methanone]	166
Cc1nc2c(c(-c3ccn[nH]3)n1)C[C@H](C)N(C(=O)c1ccc(F)cc1Cl)C2 (single isomer, unassigned) [Example 92, (S*)-(2-chloro-4-fluorophenyl)(2,6-dimethyl-4-(1H-pyrazol-5-yl)-5,6-dihydropyrido[3,4-d]pyrimidin-7(8H)-yl)methanone]	5960

target: P2X7 (Homo sapiens (Human), UniProt Q99572); test: P2X7 antagonism in human PBMCs (IL-1β release, ELISA); type: cell-based; conditions: test compound 10 μM, IL-1β release in human PBMCs, LPS 30 ng/ml + Bz-ATP 0.5 mM, read-out: PBMC 10 μM (% control)
Sequence (Q99572 whole entry): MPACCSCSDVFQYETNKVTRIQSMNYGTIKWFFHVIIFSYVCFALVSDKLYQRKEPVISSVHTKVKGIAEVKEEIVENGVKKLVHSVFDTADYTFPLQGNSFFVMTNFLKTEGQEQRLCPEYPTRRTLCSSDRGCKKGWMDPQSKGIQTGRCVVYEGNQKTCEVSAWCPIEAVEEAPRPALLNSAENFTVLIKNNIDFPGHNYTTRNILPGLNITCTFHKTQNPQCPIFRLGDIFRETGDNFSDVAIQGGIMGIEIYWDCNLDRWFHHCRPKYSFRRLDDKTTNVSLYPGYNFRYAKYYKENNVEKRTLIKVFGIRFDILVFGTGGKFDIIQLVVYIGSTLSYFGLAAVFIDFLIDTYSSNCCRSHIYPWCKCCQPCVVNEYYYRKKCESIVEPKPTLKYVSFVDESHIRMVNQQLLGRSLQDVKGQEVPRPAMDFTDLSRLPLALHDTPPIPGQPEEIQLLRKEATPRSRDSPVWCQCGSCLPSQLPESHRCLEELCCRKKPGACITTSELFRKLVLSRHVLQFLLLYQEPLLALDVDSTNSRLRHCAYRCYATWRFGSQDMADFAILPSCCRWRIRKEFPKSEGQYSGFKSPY
Description: Human blood was collected using a blood donor program. […] Cells were incubated for an additional 1.5 hours. […] In Table 2, when the data cell has been left blank, it is intended to mean that the compound was not tested in that assay.

SMILES	remaining activity at 10 µM [%]
Cc1cccc(C(=O)N2CCc3c(ncnc3-c3ccn[nH]3)C2)c1C [Example 9, 7-[(2,3-Dimethylphenyl)carbonyl]-4-(1H-pyrazol-5-yl)-5,6,7,8-tetrahydropyrido[3,4-d]pyrimidine]	9.8
Cc1nc2c(c(-c3ccn[nH]3)n1)CC(C)N(C(=O)c1ccc(Cl)cc1Cl)C2 (stereo not shown) [Example 83, (2,4-dichlorophenyl)(2,6-dimethyl-4-(1H-pyrazol-5-yl)-5,6-dihydropyrido[3,4-d]pyrimidin-7(8H)-yl)methanone]	2.7
Cc1nc2c(c(-c3[nH]ncc3C(F)(F)F)n1)CCN(C(=O)c1cccc(Cl)c1Cl)C2 [Example 40, 7-[(2,3-Dichlorophenyl)carbonyl]-2-methyl-4-[4-(trifluoromethyl)-1H-pyrazol-5-yl]-5,6,7,8-tetrahydropyrido[3,4-d]pyrimidine]	12.9
Cc1nc2c(c(-c3ccn[nH]3)n1)CC(C)N(C(=O)c1cccc(C(F)(F)F)c1Cl)C2 (stereo not shown) [Example 56, 7-{[2-Chloro-3-(trifluoromethyl)phenyl]carbonyl}-2,6-dimethyl-4-(1H-pyrazol-5-yl)-5,6,7,8-tetrahydropyrido[3,4-d]pyrimidine]	10.2
Cc1cccc(C(=O)N2CCc3c(ncnc3-c3cnn(C)c3)C2)c1Cl [Example 6, 7-[(2-Chloro-3-methylphenyl)carbonyl]-4-(1-methyl-1H-pyrazol-4-yl)-5,6,7,8-tetrahydropyrido[3,4-d]pyrimidine]	49.5
Cc1nc2c(c(-c3ccn[nH]3)n1)CC(C)N(C(=O)c1ccc(F)c(C(F)(F)F)c1Cl)C2 (stereo not shown) [Example 64, (2-chloro-4-fluoro-3-(trifluoromethyl)phenyl)(2,6-dimethyl-4-(1H-pyrazol-5-yl)-5,6-dihydropyrido[3,4-d]pyrimidin-7(8H)-yl)methanone]	-2.1
Cc1nc2c(c(-c3ccccn3)n1)CCN(C(=O)c1cccc(C(F)(F)F)c1Cl)C2 [Example 30, 7-{[2-Chloro-3-(trifluoromethyl)phenyl]carbonyl}-2-methyl-4-pyridin-2-yl-5,6,7,8-tetrahydropyrido[3,4-d]pyrimidine]	21
Cc1nc2c(c(-c3ccn(CCF)n3)n1)C[C@H](C)N(C(=O)c1cccc(C(F)(F)F)c1Cl)C2 (single isomer, unassigned) [Example 125, (S*)-(2-chloro-3-(trifluoromethyl)phenyl)(4-(1-(2-fluoroethyl)-1H-pyrazol-3-yl)-2,6-dimethyl-5,6-dihydropyrido[3,4-d]pyrimidin-7(8H)-yl)methanone]	64.7
CCc1nc2c(c(-c3ccn[nH]3)n1)CC(C)N(C(=O)c1cccc(C(F)(F)F)c1Cl)C2 (stereo not shown) [Example 98, (2-chloro-3-(trifluoromethyl)phenyl)(2-ethyl-6-methyl-4-(1H-pyrazol-5-yl)-5,6-dihydropyrido[3,4-d]pyrimidin-7(8H)-yl)methanone]	13.2
Cc1nc2c(c(-c3c(C)noc3C)n1)CCN(C(=O)c1cccc(C(F)(F)F)c1Cl)C2 [Example 46, 7-{[2-Chloro-3-(trifluoromethyl)phenyl]carbonyl}-4-(3,5-dimethylisoxazol-4-yl)-2-methyl-5,6,7,8-tetrahydropyrido[3,4-d]pyrimidine]	100
CN(C)c1nc2c(c(-c3ccccc3)n1)CCN(C(=O)c1cccc(C(F)(F)F)c1Cl)C2 [Example 26, 7-{[2-Chloro-3-(trifluoromethyl)phenyl]carbonyl}-N,N-dimethyl-4-phenyl-5,6,7,8-tetrahydropyrido[3,4-d]pyrimidin-2-amine]	16.1
Cc1nc2c(c(-c3ccn[nH]3)n1)CC(C)N(C(=O)c1ccc(Cl)c(F)c1Cl)C2 (stereo not shown) [Example 70, (2,4-dichloro-3-fluorophenyl)(2,6-dimethyl-4-(1H-pyrazol-5-yl)-5,6-dihydropyrido[3,4-d]pyrimidin-7(8H)-yl)methanone]	-2.7
